Values quoted from earlier work in publication PMC3261373 (Bioconjugate Chemistry, 2011).
One block for each molecule: values may come before it.

Assays:
[1] = tested on: angiogenesis and tumor growth; conditions: in words
[2] = tested on: APN
[3] = tested on: αvβ3-integrin; conditions: in vivo blocking studies

Molecule: CC(C)C[C@H](NC(=O)[C@@H](O)[C@H](N)Cc1ccccc1)C(=O)O [bestatin]
- effect on angiogenesis and tumor growth [1]: suppressed angiogenesis and tumor growth
- mode of APN inhibition ([2]; in words): slow-binding competitive inhibitor

Molecule: cyclic CNGRC [cyclic CNGRC peptide]
- binding affinity to APN ([2]; enzyme inhibition studies): moderate binding affinity
- binding to APN/CD13 ([2]; in words): known to bind APN/CD13

- binding to tumors and tissues expressing αvβ3-integrin [3]: selective binding
Molecule: cyclic CisoDGRC [^99mTc-labeled cyclic CisoDGRC conjugate]
